Measurements from patent publication US20100311036A1, “Methods for Augmentation of Cell Cryopreservation” (UNIVERSITY OF SOUTH CAROLINA, priority 2009, published 2010).

Legend:
R1 mouse ES cells [1] = experiment: immediate cell viability post cryopreservation (membrane integrity, live/dead assay); format: cell-based; conditions: post ultrafast vitrification in quartz microcapillary; 2 M PROH and/or 0.5 M extracellular trehalose; within 3 hr at day 0
Method: (§1) A novel ultrafast cooling (cooling rate >2×10^5° C./min) technique for ice-free cryopreservation (i.e., ultrafast vitrification) of mouse ES cells has been recently developed using quartz microcapillaries (180 μm in inner diameter and 10 μm in wall thickness in the working part). A comparison of the quartz microcapillary and the traditional French type plastic straw used for cell vitrification is given in FIG. 2. […]
(§2) The immediate cell viability post cryopreservation represented by membrane integrity was assessed using the standard live/dead assay kit of two fluorescent probes: calcein AM and ethidium homodimer (Invitrogen, Carlsbad, Calif.). Cells that excluded ethidium homodimer and retained the fluorescent calcein were counted as being viable. To check cell viability more than one day post cryopreservation, cell attachment evaluated at day 1 and proliferation/growth evaluated over a three-day observation period were also studied. […] The number of cells in at least 20 randomly selected representative fields under a 10× objective was counted every day for all the samples. Proliferation was assessed by normalizing the number of cells at day 3 and day 2 to that at day 1. Attachment efficiency (i.e., viability at day 1) was calculated as the ratio of the number of cells of a cryopreserved sample to that of the control non-frozen sample at day 1. […]

R1 mouse ES cells [2] = experiment: attachment efficiency (1 day viability) post cryopreservation; format: cell-based; conditions: post ultrafast vitrification in quartz microcapillary; 2 M PROH and/or 0.5 M extracellular trehalose; day 1, relative to non-frozen control
Method: as §1, §2

SMILES | immediate cell viability (R1 mouse ES cells [1]) | 1 day viability (attachment efficiency) (R1 mouse ES cells [2])
CC(O)CO (stereo not shown) [1,2-propanediol] | ~20% | ~12%
OC[C@H]1O[C@H](O[C@H]2O[C@H](CO)[C@@H](O)[C@H](O)[C@H]2O)[C@H](O)[C@@H](O)[C@@H]1O [trehalose] | about 65% | < 2%
